Test results reported in publication PMC12472947 (Pharmaceuticals, 2025).
Values joined by “and” are separate entries in the source; they are usually repeats but may differ in a detail not shown here. Identical values can stand only once. Like-named read-outs stand apart in the source and are kept apart here.

Assays:
[1] = molecular target: T1, equine serum butyrylcholinesterase (EqBuChE) (Equus caballus, UniProt P81908); assay: Enzymatic kinetic study, EqBChE; type: biochemical; conditions: BChE
T1 construct: equine serum BChE [EqBChE]; from tissue; host or cells: equine serum
T1 sequence (P81908 whole entry): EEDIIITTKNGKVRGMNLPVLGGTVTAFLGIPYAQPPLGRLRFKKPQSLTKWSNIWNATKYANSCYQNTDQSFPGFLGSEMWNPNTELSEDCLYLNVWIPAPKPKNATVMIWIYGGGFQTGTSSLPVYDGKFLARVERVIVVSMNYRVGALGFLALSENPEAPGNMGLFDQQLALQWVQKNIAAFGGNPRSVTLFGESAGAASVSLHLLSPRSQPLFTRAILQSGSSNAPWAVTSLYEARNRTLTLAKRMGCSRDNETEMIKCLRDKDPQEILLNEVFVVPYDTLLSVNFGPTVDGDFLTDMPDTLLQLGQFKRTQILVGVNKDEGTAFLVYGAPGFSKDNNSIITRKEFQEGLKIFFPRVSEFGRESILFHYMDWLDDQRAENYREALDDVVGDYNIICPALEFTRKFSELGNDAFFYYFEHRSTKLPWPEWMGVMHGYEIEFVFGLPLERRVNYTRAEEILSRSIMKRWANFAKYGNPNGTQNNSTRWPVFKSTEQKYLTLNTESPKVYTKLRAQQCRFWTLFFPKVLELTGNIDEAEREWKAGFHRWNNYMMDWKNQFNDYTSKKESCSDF
Protocol: (§1) The enzymatic kinetics of cholinesterase inhibition were determined according to an adapted Ellman’s method. All of the solutions were prepared at 20 °C in 0.02 M Tris-HCl buffer (pH 7.5; ionic strength ~0.02 M), stock solutions of test compounds were prepared in DMSO:EtOH (7:3) mixture (20 mM), and the experiment was conducted in triplicate. To a flat-bottom 96-well transparent plate (path length of 0.6 cm) were added 150 μL of treatment solutions with inhibitors 1a, 1h, and 1j at two different concentrations (Table S1) distributed in eight sets of triplicate each. Eight sets of untreated triplicates were used as a negative control. Following, there were added 60 μL of 5,5′-Dithiobis(2-nitrobenzoic acid) (DTNB, Ellman’s reagent) at 1.1 mM and 30 μL of electric eel acetylcholinesterase (EeAChE) or equine serum butyrylcholinesterase (EqBuChE) at 0.20 U/mL in the presence of 1 mg/mL bovine serum albumin (BSA). […] Ki, Ki’ (competitive and noncompetitive inhibition constants, respectively), Km (Michaelis-Menten constant), and Vmax values were calculated with Graphpad Prism v7.0 using the non-linear regression models for enzyme kinetics inhibition and enzyme kinetics–substrate vs. velocity.

[2] = molecular target: electric eel AChE [EeAChE] (Electrophorus electricus, UniProt O42275); assay: biochemical; type: biochemical; conditions: for IC50: Electric eel AChE, Ellman method, read-out: IC50(nM) ± SD AChE (EeAChE); for SI: Selectivity Index = EqBChE IC50/EeAChE IC50
Chain of electric eel AChE [EeAChE] (O42275 24-633): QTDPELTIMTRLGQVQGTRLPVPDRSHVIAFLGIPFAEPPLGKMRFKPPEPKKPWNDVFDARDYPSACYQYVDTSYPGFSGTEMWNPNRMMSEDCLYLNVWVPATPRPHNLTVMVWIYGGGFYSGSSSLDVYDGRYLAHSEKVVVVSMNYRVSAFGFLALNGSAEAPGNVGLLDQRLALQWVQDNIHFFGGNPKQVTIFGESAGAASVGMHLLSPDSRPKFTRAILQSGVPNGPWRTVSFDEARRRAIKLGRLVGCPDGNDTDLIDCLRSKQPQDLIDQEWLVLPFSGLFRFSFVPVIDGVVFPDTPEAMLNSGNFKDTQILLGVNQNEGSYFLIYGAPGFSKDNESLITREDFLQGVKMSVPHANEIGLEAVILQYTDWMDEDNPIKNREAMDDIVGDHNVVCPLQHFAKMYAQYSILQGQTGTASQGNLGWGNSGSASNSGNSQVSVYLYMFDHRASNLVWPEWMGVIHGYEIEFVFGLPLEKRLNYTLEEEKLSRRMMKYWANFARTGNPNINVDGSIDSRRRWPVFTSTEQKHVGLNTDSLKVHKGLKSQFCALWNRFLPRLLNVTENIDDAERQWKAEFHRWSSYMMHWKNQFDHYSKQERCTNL
Protocol: (§2) The anticholinesterase activity was determined using Ellman’s method, adapted as follows. […] Subsequently, 60 μL of 5,5′-dithiobis(2-nitrobenzoic acid) (DTNB, 1.1 mM) and 30 μL of enzyme solution (electric eel AChE [EeAChE], human AChE [hAChE], or equine serum BChE [EqBChE], 0.20 U/mL) containing 1 mg/mL bovine serum albumin (BSA) were added. […] Enzyme activity was calculated as the percentage relative to untreated controls, subtracting the blank reference. IC50 values were derived via non-linear regression analysis of dose–response curves (Figure S4) using GraphPad Prism v7.0.

[3] = molecular target: T2, equine serum BChE [EqBChE] (Equus caballus, UniProt P81908); assay: biochemical; conditions: Ellman method, read-out: IC50(nM) ± SD BChE (EqBChE)
T2 construct: equine serum BChE [EqBChE]; from tissue; host or cells: equine serum
T2 sequence (P81908 whole entry): as the sequence (P81908 whole entry) above
Protocol: as §2

[4] = molecular target: electric eel acetylcholinesterase (EeAChE) (Electrophorus electricus, UniProt O42275); assay: Enzymatic kinetic study, EeAChE; type: biochemical; conditions: AChE
Chain of electric eel acetylcholinesterase (EeAChE) (O42275 24-633): as the sequence (O42275 24-633) above
Protocol: as §1

[5] = system: SH-SY5Y neuroblastoma cells; assay: Cytotoxicity (neurotoxicity) MTT assay in SH-SY5Y; type: cell-based; conditions: up to 50 µM
Protocol: (§3) The immortalized human neuroblastoma cell line (SH-SY5Y–ATCC: CRL-2226; BCRJ:0223) was used to evaluate cytotoxicity. The cell line was cultured in Dulbecco’s Modified Eagle’s Medium and F12 in a 1:1 ratio (DMEM:F12; Sigma-Aldrich code 0697, Brazil) supplemented with 10% fetal bovine serum (FBS; Sigma-Aldrich code F2442, Brazil) and 1% streptomycin/penicillin (10,000 U/mL and 10,000 μg/mL, respectively; Nova Biotecnologia code BR30110-01, Cotia, SP, Brazil) and incubated at 37 °C with 5% CO2. The culture medium was replaced every 48 h, until the cells reached semi-confluence (≥70%). Cell passage was carried out with the aid of trypsin-EDTA/0.25% solution (Nova Biotecnologia, Brazil) and divided between 5 or 8 mL culture volumes depending on the respective bottles (25 or 75 cm^2) used.
(§4) The in vitro cytotoxicity assay evaluated cell viability using the [3-(4,5-dimethylthiazol-2yl)-2,5-diphenyl tetrazolium] bromide (MTT) reduction assay. Cells were seeded at an initial density of 5.0 × 10^4 cells/well in 96-well plates in a volume of 200 µL. […] In the next step, the culture medium was replaced by the sample solution previously described (Section 3.4.2). After 24 h exposure, the medium was replaced with 100 μL of MTT in phosphate-buffer saline (PBS), pH 7.4, at a concentration of 0.5 mg.mL^−1/well and the plates were incubated for an additional 3 h. Then, the MTT solution was removed, and 100 μL of DMSO was added to solubilize the formazan crystals. The cell viability was measured by absorbance at 562 nm using a Microplate Absorbance Reader (Kasuaki, Brazil). All concentrations tested were evaluated in nine replicates (n = 9). The variation in results was observed using ANOVA followed by Tukey’s test for multiple comparisons through GraphPad Prism v5^TM with a significance level of p < 0.05.

[6] = Cytotoxicity (neurotoxicity) MTT assay in SH-SY5Y; type: cell-based; conditions: human, SH-SY5Y neuroblastoma cells
Protocol: as §3, §4

[7] = system: H2O2-damaged SH-SY5Y cells; assay: In vitro neuroprotection against H2O2 in SH-SY5Y (MTT)
Protocol: For the neuroprotection assay, the cells previously cultured (Section 3.4.1) were seeded in 96-well plates at a density of 5 × 10^4 cells/well in a volume of 200 µL. The plates were incubated at 37 °C containing 5% CO2 for 24 h. After 24 h, the medium was replaced with the test solutions. […] Finally, the test solutions were removed, the cells were washed with PBS pH 7.4, and the H2O2 solution was added and maintained in contact with the cells for 24 h. After 24 h exposure, the neuroprotective capacity was assessed through cell viability using the MTT assay protocol previously described in Section 3.4.3 [52, 53].

[8] = enzyme-substrate complex, global non-linear regression (Table 2)
[9] = global non-linear regression, mixed inhibition (Table S3)

| SMILES | IC50 [2] [nM] | SI [2] | IC50 [3] [nM] | other results |
| --- | --- | --- | --- | --- |
| O=c1oc2cc(OCCN3CCCCC3)ccc2cc1-c1cn(-c2ccccc2)nn1 [Compound 1a, 3-(1-Phenyl-1H-1,2,3-triazol-4-yl)-7-(2-(piperidin-1-yl)ethoxy)-2H-chromen-2-one] | 50 ± 2.04 | 173 | 8660 ± 150 | inhibition mechanism ([1]; Lineweaver-Burk plots): mixed-type inhibition; Ki ([1]; competitive inhibition constant (Table S2), read-out: Ki (nM) ± SD): 3500 ± 64.9 nM; Ki’ (nM) ± SE [1, 8]: 11,400 ± 1100 nM; Ki ([1]; free enzyme (Table S3), read-out: Ki ± SE (95% CI)): 3940 ± 227 nM; Ki ([1]; free enzyme, global non-linear regression (Table 2), read-out: Ki (nM) ± SE): 3940 ± 230 nM; α ± SE (95% CI) [1, 9]: 2.883 ± 0.3970; Vmax ± SD ([1]; inhibitor 4 μM): 11.69 ± 0.201 1 × 10^3 nM/min and 11.69 ± 0.20 1 × 10^3 nM/min; Vmax ± SD ([1]; inhibitor 8 μM): 8.24 ± 0.212 1 × 10^3 nM/min and 8.24 ± 0.21 1 × 10^3 nM/min; inhibition mechanism ([4]; Lineweaver-Burk plots): mixed-type inhibition; Ki′ ± SE (95% CI) ([4]; enzyme-substrate complex (Table S3)): 61.59 ± 20.04 nM; Ki’ (nM) ± SE [4, 8]: 61.59 ± 20.04 nM; Ki ([4]; free enzyme, global non-linear regression to mixed-inhibition equation (Table 2), read-out: Ki (nM) ± SE): 30.8 ± 5.38 nM; α ± SE (95% CI) [4, 9]: 2.001 ± 0.6489; Vmax ± SD ([4]; inhibitor 0.02 μM): 2.78 ± 0.044 1 × 10^3 nM/min and 2.78 ± 0.04 1 × 10^3 nM/min; Vmax ± SD ([4]; inhibitor 0.06 μM): 2.06 ± 0.031 1 × 10^3 nM/min and 2.06 ± 0.03 1 × 10^3 nM/min |
| O=c1oc2cc(OCCCCN3CCCCC3)ccc2cc1-c1cn(-c2ccccc2)nn1 [Compound 1c, 3-(1-Phenyl-1H-1,2,3-triazol-4-yl)-7-(4-(piperidin-1-yl)butoxy)-2H-chromen-2-one] | 1110 ± 10 | ~2 | 2410 ± 29 |  |
| O=c1oc2cc(OCCCCCN3CCCCC3)ccc2cc1-c1cn(-c2ccccc2)nn1 [Compound 1d, 3-(1-Phenyl-1H-1,2,3-triazol-4-yl)-7-((5-(piperidin-1-yl)pentyl)oxy)-2H-chromen-2-one] | 4790 ± 290 | ~1 | 3540 ± 81 |  |
| CC1CCN(CCOc2ccc3cc(-c4cn(-c5ccccc5)nn4)c(=O)oc3c2)CC1 [Compound 1e, 7-(2-(4-Methylpiperidin-1-yl)ethoxy)-3-(1-phenyl-1H-1,2,3-triazol-4-yl)-2H-chromen-2-one] | 1690 ± 75 | ~7 | 11100 |  |
| CN1CCN(CCOc2ccc3cc(-c4cn(-c5ccccc5)nn4)c(=O)oc3c2)CC1 [Compound 1f, 7-(2-(4-Methylpiperazin-1-yl)ethoxy)-3-(1-phenyl-1H-1,2,3-triazol-4-yl)-2H-chromen-2-one] | 3160 ± 76 | 3 | 8140 ± 890 |  |
| O=c1oc2cc(OCCN3CCNCC3)ccc2cc1-c1cn(-c2ccccc2)nn1 [Compound 1g, 3-(1-Phenyl-1H-1,2,3-triazol-4-yl)-7-(2-(piperazin-1-yl)ethoxy)-2H-chromen-2-one] | 1060 ± 74 | ~8 | 9840 ± 130 |  |
| COc1ccccc1Cn1cc(-c2cc3ccc(OCCN4CCCCC4)cc3oc2=O)nn1 [Compound 1i, 3-(1-(2-Methoxybenzyl)-1H-1,2,3-triazol-4-yl)-7-(2-(piperidin-1-yl)ethoxy)-2H-chromen-2-one] | 15.3 ± 0.25 | 184 | 2810 ± 230 |  |
| COc1ccc(Cn2cc(-c3cc4ccc(OCCN5CCCCC5)cc4oc3=O)nn2)cc1 [Compound 1k, 3-(1-(4-Methoxybenzyl)-1H-1,2,3-triazol-4-yl)-7-(2-(piperidin-1-yl)ethoxy)-2H-chromen-2-one] | 4.58 ± 0.62 | 443 | 2080 ± 99 | neurotoxicity [5]: non-neurotoxic; viability at 24 h, 12.5 µM ([6]; 12.5 μM, 24 h, MTT, read-out: Cell viability (% of control)): 99%; viability at 24 h, 25 µM ([6]; 25.0 μM, 24 h, MTT, read-out: Cell viability (% of control)): 106%; viability at 24 h, 50 µM ([6]; 50.0 μM, 24 h, MTT, read-out: Cell viability (% of control)): 84%; viability at 24 h ([6]; up to 25 μM, read-out: cell viability): ≥ 70%; neuroprotection against H2O2-induced oxidative stress ([7]; 12.5 µM): neuroprotective effects; viability at 12.5 µM ([7]; Homo sapiens, SH-SY5Y, read-out: Cell viability (% of control)): 92% |
| O=c1oc2cc(OCCN3CCCCC3)ccc2cc1-c1cn(Cc2ccc(F)cc2)nn1 [Compound 1l, 3-(1-(4-Fluorbenzyl)-1H-1,2,3-triazol-4-yl)-7-(2-(piperidin-1-yl)ethoxy)-2H-chromen-2-one] | 23.4 ± 1.77 | 176 | 4120 ± 110 |  |
| O=c1oc2cc(OCCN3CCCCC3)ccc2cc1-c1cn(Cc2cccc(Cl)c2)nn1 [Compound 1m] | 13.1 ± 0.83 | 149 | 1950 ± 120 |  |
| O=c1oc2cc(OCCN3CCCCC3)ccc2cc1-c1cn(Cc2ccc(Cl)cc2)nn1 [Compound 1n, 3-(1-(4-Chlorobenzyl)-1H-1,2,3-triazol-4-yl)-7-(2-(piperidin-1-yl)ethoxy)-2H-chromen-2-one] | 104 ± 5.4 |  | 2240 ± 60 |  |
| O=c1oc2cc(OCCN3CCCCC3)ccc2cc1-c1cn(Cc2cccc(Br)c2)nn1 [Compound 1o, 3-(1-(3-Bromobenzyl)-1H-1,2,3-triazol-4-yl)-7-(2-(piperidin-1-yl)ethoxy)-2H-chromen-2-one] | 7.92 ± 0.48 | 265 | 2090 ± 54 |  |
| O=c1oc2cc(OCCN3CCCCC3)ccc2cc1-c1cn(Cc2ccc(Br)cc2)nn1 [Compound 1p, 3-(1-(4-Bromobenzyl)-1H-1,2,3-triazol-4-yl)-7-(2-(piperidin-1-yl)ethoxy)-2H-chromen-2-one] | 12.9 ± 0.96 | 88 | 1140 ± 70 |  |
